Laboratory results reported in US8841309B2, “Substituted pyrazines and their use in the treatment of disease” (Boehringer Ingelheim International GmbH, priority 2012, dated 2014).

Target: T1, ENaC (Mus musculus, UniProt Q61180+Q9WU38+Q9WU39)
T1 construct: Mouse kidney M-1 cells were cultivated in DMEM containing 5% FCS and 5 μM dexamethasone; endogenous in cells; host or cells: mouse kidney M-1 cells
T1 sequence (Q61180 1-699): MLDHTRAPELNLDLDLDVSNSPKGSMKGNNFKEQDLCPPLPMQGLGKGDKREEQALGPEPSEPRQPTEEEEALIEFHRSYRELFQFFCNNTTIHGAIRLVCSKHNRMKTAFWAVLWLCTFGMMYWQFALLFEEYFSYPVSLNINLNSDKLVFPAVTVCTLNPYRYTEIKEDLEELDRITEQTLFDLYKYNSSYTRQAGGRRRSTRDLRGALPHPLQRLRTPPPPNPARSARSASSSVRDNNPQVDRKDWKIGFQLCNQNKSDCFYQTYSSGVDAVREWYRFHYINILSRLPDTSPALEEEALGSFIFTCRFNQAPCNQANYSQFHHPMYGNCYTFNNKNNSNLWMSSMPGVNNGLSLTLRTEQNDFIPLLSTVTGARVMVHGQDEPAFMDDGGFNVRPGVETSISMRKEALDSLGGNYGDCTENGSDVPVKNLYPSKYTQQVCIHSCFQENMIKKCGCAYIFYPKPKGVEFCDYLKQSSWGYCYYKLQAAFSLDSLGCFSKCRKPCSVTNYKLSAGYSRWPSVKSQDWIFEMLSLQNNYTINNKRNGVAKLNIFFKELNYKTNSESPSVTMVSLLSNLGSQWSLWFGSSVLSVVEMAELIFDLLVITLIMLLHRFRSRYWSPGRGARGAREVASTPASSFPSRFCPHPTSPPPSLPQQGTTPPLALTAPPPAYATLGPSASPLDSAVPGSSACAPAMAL
T1 sequence (Q9WU38 1-638): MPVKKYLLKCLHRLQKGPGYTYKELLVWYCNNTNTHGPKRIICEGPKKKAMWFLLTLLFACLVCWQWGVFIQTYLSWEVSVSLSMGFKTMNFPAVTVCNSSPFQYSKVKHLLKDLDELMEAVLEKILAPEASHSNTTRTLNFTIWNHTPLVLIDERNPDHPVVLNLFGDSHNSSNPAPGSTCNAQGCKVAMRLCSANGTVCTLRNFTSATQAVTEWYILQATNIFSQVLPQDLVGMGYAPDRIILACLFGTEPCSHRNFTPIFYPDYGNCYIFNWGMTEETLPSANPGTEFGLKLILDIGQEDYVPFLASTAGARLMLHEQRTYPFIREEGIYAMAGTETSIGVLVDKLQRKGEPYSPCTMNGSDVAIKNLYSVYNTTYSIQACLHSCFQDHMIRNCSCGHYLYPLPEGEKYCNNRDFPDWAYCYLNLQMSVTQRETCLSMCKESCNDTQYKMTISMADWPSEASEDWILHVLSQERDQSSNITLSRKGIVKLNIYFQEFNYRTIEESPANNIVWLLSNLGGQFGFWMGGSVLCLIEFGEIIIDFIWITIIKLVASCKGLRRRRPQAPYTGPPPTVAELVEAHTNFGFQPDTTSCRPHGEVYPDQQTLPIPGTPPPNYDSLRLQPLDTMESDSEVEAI
T1 sequence (Q9WU39 1-655): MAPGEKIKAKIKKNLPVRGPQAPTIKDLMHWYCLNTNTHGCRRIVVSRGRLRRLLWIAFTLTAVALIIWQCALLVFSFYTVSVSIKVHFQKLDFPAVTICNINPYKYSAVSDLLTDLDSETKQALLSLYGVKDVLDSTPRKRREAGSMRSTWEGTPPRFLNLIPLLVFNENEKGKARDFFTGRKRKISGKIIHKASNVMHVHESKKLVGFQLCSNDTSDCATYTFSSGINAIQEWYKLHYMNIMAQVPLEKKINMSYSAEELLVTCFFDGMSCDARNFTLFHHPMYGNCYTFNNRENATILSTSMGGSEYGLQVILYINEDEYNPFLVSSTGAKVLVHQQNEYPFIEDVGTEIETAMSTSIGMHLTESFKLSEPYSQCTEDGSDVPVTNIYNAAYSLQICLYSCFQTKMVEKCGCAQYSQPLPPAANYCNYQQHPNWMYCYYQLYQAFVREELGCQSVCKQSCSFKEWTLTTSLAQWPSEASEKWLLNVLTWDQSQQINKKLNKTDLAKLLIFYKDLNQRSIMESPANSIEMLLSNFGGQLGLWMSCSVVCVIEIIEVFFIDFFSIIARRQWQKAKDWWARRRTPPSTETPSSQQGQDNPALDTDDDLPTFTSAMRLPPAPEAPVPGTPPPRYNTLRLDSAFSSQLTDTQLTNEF
Assay: Ussing chamber: short circuit current (I_sc) in mouse kidney M-1 cells, amiloride-sensitive
Assay type: cell-based
Conditions: compound applied to apical solution, 37° C.

N/C(=N\C(=O)c1nc(Br)c(N)nc1N)N[C@@H]1C[N+]2(Cc3ccccc3)CCC1CC2 [Example 6.1, (S)-1-Benzyl-3-[N′-(3,5-diamino-6-bromo-pyrazine-2-carbonyl)-guanidino]-1-azoniabicyclo[2.2.2]octane bromide]
IC50: 29 nM
